Experimental data reported in patent publication US7632845B2, “Phenyl quinolines and their use as estrogenic agents” (Wyeth, priority 2003, dated 2009).

Key:
ERα = molecular target: T1, ERα (Homo sapiens, UniProt P03372); assay: Competition with [3H]-17β-estradiol for ERα ligand binding domain; details: crude E. coli lysate expressing human ERα LBD (D, E, & F); 2 nM [3H]-17β-estradiol; 5-15 hours at room temperature
T1 construct: made in house; host or cells: E. coli
T1 sequence (P03372 311-547 limits assumed): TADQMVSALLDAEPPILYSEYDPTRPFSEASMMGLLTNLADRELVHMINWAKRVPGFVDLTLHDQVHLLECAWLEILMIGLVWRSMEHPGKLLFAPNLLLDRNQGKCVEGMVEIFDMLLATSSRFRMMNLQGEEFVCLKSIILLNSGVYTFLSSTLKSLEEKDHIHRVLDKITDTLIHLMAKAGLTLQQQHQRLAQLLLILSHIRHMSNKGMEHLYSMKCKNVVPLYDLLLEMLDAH
Experimental: (§1) Representative examples of the invention were evaluated for their ability to compete with 17β-estradiol for both ERα and ERβ. This test procedure provides the methodology for one to determine whether a particular compound binds to the estrogen receptor (and is therefore “estrogenic”) and whether there is selectivity for ERα or ERβ. […] 17β-estradiol is included as a standard reference for compalison. The procedure used is briefly described below. A crude lysate of E. coli expressing the estrogen receptor ligand binding domains (D, E, & F) of human ERα or ERβ was prepared. Both receptors and compounds were diluted in 1× Dulbecco's PBS (DPBS) supplemented with 1 mM EDTA. Using a high binding masked microtiter plate, 100 uL of receptor (1 uG/well) was combined with 2 nM [^3H]-17β-estradiol and various concentrations of compound. After between 5 and 15 hours at room temperature, the plates were washed with DPBS/1 mM EDTA and bound radioactivity determined by liquid scintillation counting.

ERβ = molecular target: T2, ERβ (Homo sapiens, UniProt Q92731); assay: Competition with [3H]-17β-estradiol for ERβ ligand binding domain; details: for IC50: crude E. coli lysate expressing human ERβ LBD (D, E, & F), 2 nM [3H]-17β-estradiol, 5-15 hours at room temperature; for α/β: receptor selectivity, ratio ERα IC50 / ERβ IC50
T2 construct: made in house; host or cells: E. coli
Experimental: as §1

T2 sequence (Q92731 264-498 limits assumed): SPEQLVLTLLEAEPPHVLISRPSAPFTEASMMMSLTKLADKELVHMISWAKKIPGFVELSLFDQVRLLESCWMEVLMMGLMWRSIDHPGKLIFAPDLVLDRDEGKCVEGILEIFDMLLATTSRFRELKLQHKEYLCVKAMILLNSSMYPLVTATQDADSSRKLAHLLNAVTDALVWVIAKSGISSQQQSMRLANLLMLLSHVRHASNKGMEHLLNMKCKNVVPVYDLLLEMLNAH

Row | SMILES | IC50 (ERα) | IC50 (ERβ) | α/β (ERβ)
1 | Oc1ccc2nc(-c3ccc(O)c(F)c3)cc(-c3nccs3)c2c1 [Cpd 18, 2-(3-Fluoro-4-hydroxyphenyl)-4-thiazol-2-yl-quinolin-6-ol] | 2160 nM | 208 nM | 10
2 | Oc1ccc2nc(-c3ccc(O)c(F)c3)cc(-c3ccccc3)c2c1 [Cpd 20, 2-(3-Fluoro-4-hydroxyphenyl)-4-phenylquinolin-6-ol] | 1380 nM | 128 nM | 11
3 | Oc1ccc2nc(-c3ccc(O)c(F)c3)cc(-c3ccc(C(F)(F)F)cc3)c2c1 [Cpd 25, 2-(3-Fluoro-4-hydroxyphenyl)-4-(4-trifluoromethylphenyl)quinolin-6-ol] | > 5000 nM | > 5000 nM | –
4 | Oc1ccc2nc(-c3ccc(O)c(F)c3)cc(-c3ccsc3)c2c1 [Cpd 26, 2-(3-Fluoro-4-hydroxyphenyl)-4-thiophen-3-yl-quinolin-6-ol] | 868 nM | 75 nM | 12
5 | Oc1ccc2nc(-c3ccc(O)c(F)c3)cc(-c3ccncc3)c2c1 [Cpd 27, 2-(3-Fluoro-4-hydroxyphenyl)-4-(4-pyridinyl)quinolin-6-ol] | > 1000 nM | 78 nM | >12
6 | Oc1ccc2nc(-c3ccc(O)c(F)c3)cc(-c3cncnc3)c2c1 [Cpd 28, 2-(3-Fluoro-4-hydroxyphenyl)-4-(5-pyrimidinyl)quinolin-6-ol] | 3310 nM | 968 nM | 3
7 | Oc1ccc(-c2ccc3c(Cl)c(O)ccc3n2)cc1 [Cpd 31, 5-Chloro-2-(4-hydroxyphenyl)quinolin-6-ol] | 840 nM | 38 nM | 22
8 | Oc1ccc(-c2ccc3c(Br)c(O)ccc3n2)cc1 [Cpd 32, 5-Bromo-2-(4-hydroxyphenyl)quinolin-6-ol] | 1190 nM | 90 nM | 13
9 | Oc1ccc(-c2nc3ccc(O)cc3c(Br)c2Cl)cc1 [Cpd 35a, 4-Bromo-3-chloro-2-(4-hydroxyphenyl)quinolin-6-ol] | 78 nM | 1.25 nM | 62
10 | Oc1ccc2nc(-c3ccc(O)c(F)c3)c(Cl)c(Br)c2c1 [Cpd 35b, 4-Bromo-3-chloro-2-(3-fluoro-4-hydroxyphenyl)quinolin-6-ol] | 90 nM | 3.7 nM | 24
11 | Oc1ccc(-c2nc3ccc(O)cc3c(-c3ccc(F)cc3)c2Cl)cc1 [Cpd 36, 3-Chloro-4-(4-fluorophenyl)-2-(4-hydroxyphenyl)quinolin-6-ol] | 340 nM | 244 nM | 1.4
12 | N#Cc1c(Cl)c(-c2ccc(O)c(F)c2)nc2ccc(O)cc12 [Cpd 37, 3-Chloro-4-cyano-2-(3-fluoro-4-hydroxyphenyl)quinolin-6-ol] | 318 nM | 26 nM | 12
13 | Oc1cc(Br)c2nc(-c3ccc(O)c(F)c3)cc(Cl)c2c1 [Cpd 44, 8-Bromo-4-chloro-2-(3-fluoro-4-hydroxyphenyl)-quinolin-6-ol] | 31 nM | 0.54 nM | 57
14 | Oc1cc(Br)c2nc(-c3ccc(O)c(F)c3)cc(Br)c2c1 [Cpd 45b, 4,8-Dibromo-2-(3-fluoro-4-hydroxyphenyl)quinolin-6-ol] | 11.6 nM | 1.7 nM | 7
15 | CCCCC#Cc1cc(-c2ccc(O)c(F)c2)nc2c(Cl)cc(O)cc12 [Cpd 49, 8-Chloro-2-(3-fluoro-4-hydroxyphenyl)-4-hex-1-ynylquinolin-6-ol] | 304 nM | 21 nM | 14
16 | N#Cc1cc(O)cc2c(Br)cc(-c3ccc(O)c(F)c3)nc12 [Cpd 57, 4-Bromo-8-cyano-2-(3-fluoro-4-hydroxyphenyl)quinolin-6-ol] | 86 nM | 1.4 nM | 61
17 | C#Cc1cc(-c2ccc(O)c(F)c2)nc2c(C#N)cc(O)cc12 [Cpd 58, 8-Cyano-4-ethynyl-2-(3-fluoro-4-hydroxyphenyl)quinolin-6-ol] | 87 nM | 1.3 nM | 67

Second part, the compound after the results:

Row | IC50 (ERα) | IC50 (ERβ) | α/β (ERβ) | SMILES
18 | 2920 nM | 112 nM | 26 | Cc1ccc(-c2cc(-c3ccc(O)c(F)c3)nc3ccc(O)cc23)cc1 [Cpd 21, 2-(3-Fluoro-4-hydroxyphenyl)-4-(4-methylphenyl)quinolin-6-ol]
19 | 591 nM | 33 nM | 18 | Oc1ccc2nc(-c3ccc(O)c(F)c3)cc(-c3ccc(F)cc3)c2c1 [Cpd 22, 2-(3-Fluoro-4-hydroxyphenyl)-4-(4-fluorophenyl)quinolin-6-ol]
20 | > 1000 nM | 146 nM | >6 | Oc1ccc2nc(-c3ccc(O)c(F)c3)cc(-c3ccc(Cl)cc3)c2c1 [Cpd 23, 4-(4-Chlorophenyl)-2-(3-fluoro-4-hydroxyphenyl)quinolin-6-ol]
21 | 1810 nM | 53 nM | 34 | N#Cc1ccc(-c2cc(-c3ccc(O)c(F)c3)nc3ccc(O)cc23)cc1 [Cpd 24, 4-(4-Cyanophenyl)-2-(3-fluoro-4-hydroxyphenyl)quinolin-6-ol]
22 | 18.7 nM | 0.35 nM | 53 | Oc1cc(Cl)c2nc(-c3ccc(O)c(F)c3)cc(Br)c2c1 [Cpd 45a, 4-Bromo-8-chloro-2-(3-fluoro-4-hydroxyphenyl)quinolin-6-ol]
23 | 192 nM | 1.7 nM | 113 | N#Cc1cc(-c2ccc(O)c(F)c2)nc2c(Cl)cc(O)cc12 [Cpd 47, 8-Chloro-4-cyano-2-(3-fluoro-4-hydroxyphenyl)quinolin-6-ol]
24 | 37 nM | 0.75 nM | 50 | C#Cc1cc(-c2ccc(O)c(F)c2)nc2c(Cl)cc(O)cc12 [Cpd 48, 8-Chloro-4-ethynyl-2-(3-fluoro-4-hydroxyphenyl)quinolin-6-ol]
25 | 75 nM | 0.95 nM | 79 | C=Cc1cc(-c2ccc(O)c(F)c2)nc2c(Cl)cc(O)cc12 [Cpd 50, 8-Chloro-2-(3-fluoro-4-hydroxyphenyl)-4-vinylquinolin-6-ol]
26 | 2070 nM | 37 nM | 56 | N#Cc1ccc(-c2cc(-c3ccc(O)c(F)c3)nc3c(Cl)cc(O)cc23)cc1 [Cpd 51, 8-Chloro-4-(4-cyanophenyl)-2-(3-fluoro-4-hydroxyphenyl)quinolin-6-ol]
27 | 195 nM | 13 nM | 15 | COc1ccc(-c2cc(-c3ccc(O)c(F)c3)nc3c(Cl)cc(O)cc23)cc1 [Cpd 52, 8-Chloro-2-(3-fluoro-4-hydroxyphenyl)-4-(4-methoxyphenyl)quinolin-6-ol]
28 | 116 nM | 1.1 nM | 105 | N#Cc1cc(O)cc2c(Cl)cc(-c3ccc(O)c(F)c3)nc12 [Cpd 56, 4-Chloro-8-cyano-2-(3-fluoro-4-hydroxyphenyl)quinolin-6-ol]
29 | 522 nM | 13 nM | 40 | N#Cc1ccc(-c2cc(O)cc3c(Cl)cc(-c4ccc(O)c(F)c4)nc23)cc1 [Cpd 61, 4-Chloro-8-(4-cyanophenyl)-2-(3-fluoro-4-hydroxyphenyl)quinolin-6-ol]
